Reference: patent EP2325159A1, “Novel salts of rasagiline” (LEK Pharmaceuticals d.d., priority 2009, dated 2011)

Tests used:
physchem = details: water, Solubility of rasagiline salts in water
[1] = Solubility of rasagiline salts in water measured using Crystal16 (Avantium Technologies)

With `C#CCN[C@@H]1CCc2ccccc21` [(+)-camphor-10-sulfonate, Rasagiline (+)-camphor-10-sulfonate] the “Solubility of rasagiline salts in water” value was 175 mg/mL and the solubility (physchem) was 113 mg/mL.

Work on `C#CCN[C@@H]1CCc2ccccc21` [L-mandelate, Rasagiline L-mandelate] yielded a solubility ([1]; Solubility of rasagiline salts in water, 25 °C, H2O) of 70 mg/mL and a solubility ([1]; Solubility of rasagiline salts in water, 40 °C, H2O) of 100 mg/mL.

In the case of `C#CCN[C@@H]1CCc2ccccc21` [L-tartrate, Rasagiline L-tartrate, reference compound], the solubility [1] is reported as < 30 mg/mL.
